pKd: −log10 of the molar value. ≈ marks a conversion by molar mass, not a printed value. Where a SMILES comes first, the peptide text is derived from it. [ ]: non-standard residue; d: D form. Phe(ol) = N[C@H](CO)Cc1ccccc1; Aib = CC(C)(N)C(=O)O
Tests used:
[1] = read-out: KD with PG; cited from earlier work
S. simulans 4 = assay: Antibacterial test, broth microdilution; assay type: cell-based; details: Staphylococcus simulans
MRSA T144 [2] = assay: Galleria mellonella infection model; assay type: in vivo; details: MRSA T144 5.0 × 10^6 CFUs; 10 mg/kg at 1 h post-infection; n = 7
MRSA 1530 (cfr) = assay: Antibacterial test, broth microdilution; assay type: cell-based, methicillin-resistant Staphylococcus aureus; details: Staphylococcus aureus
MRSA T144 [3] = assay: Antibacterial test, broth microdilution; assay type: cell-based, methicillin-resistant Staphylococcus aureus; details: Staphylococcus aureus
S. aureus ATCC 29213 = assay: Antibacterial test, broth microdilution; assay type: cell-based, Staphylococcus aureus; details: Fig. S5

## daptomycin
[1]
  pKd: 5.51

## CN[C@H](CC(C)C)C(=O)N[C@H]1C(=O)N[C@@H](CC(N)=O)C(=O)N[C@H]2C(=O)N[C@H]3C(=O)N[C@H](C(=O)N[C@H](C(=O)O)c4cc(O)cc(O)c4-c4cc3ccc4O)[C@H](O)c3ccc(c(Cl)c3)Oc3cc2cc(c3O[C@@H]2O[C@H](CO)[C@@H](O)[C@H](O)[C@H]2O[C@H]2C[C@](C)(N)[C@H](O)[C@H](C)O2)Oc2ccc(cc2Cl)[C@H]1O [Vancomycin]
S. simulans 4
  MIC: 1 µg/mL (≈ 0.69 µM)
MRSA T144 [2]
  Bacterial loads in G. mellonella larvae: decreased bacterial loads
MRSA 1530 (cfr)
  MIC: 1 µg/mL (≈ 0.69 µM)
MRSA T144 [3]
  MIC: 1 µg/mL (≈ 0.69 µM)

## CC(=O)NC(C)(C)C(=O)N1CCC[C@H]1C(=O)NC(C)(C)C(=O)N[C@@H](C)C(=O)NC(C)(C)C(=O)N[C@@H](C)C(=O)N[C@@H](CCC(N)=O)C(=O)NC(C)(C)C(=O)N[C@H](C(=O)NC(C)(C)C(=O)NCC(=O)N[C@@H](CC(C)C)C(=O)NC(C)(C)C(=O)N1CCC[C@H]1C(=O)N[C@H](C(=O)NC(C)(C)C(=O)NC(C)(C)C(=O)N[C@@H](CCC(=O)O)C(=O)N[C@@H](CCC(N)=O)C(=O)N[C@H](CO)Cc1ccccc1)C(C)C)C(C)C [alamethicin] (Ac-[Aib]P[Aib]A[Aib]AQ[Aib]V[Aib]GL[Aib]PV[Aib][Aib]EQ[Phe(ol)]; N-terminus assumed)
S. aureus ATCC 29213
  MIC: 16 µg/mL (≈ 8.15 µM)

Source: PMC12145052 (Acta Pharmaceutica Sinica. B, 2025)
